Measurements from PubChem BioAssay AID330 (DTP/NCI, 2004).
Several values for one entry are separate records, joined by “and”; a condition that tells them apart may be missing. Equal entries are not always repeated. Toxic doses and inconclusive results are not listed. Rule for the calls: active = survival T/C of 150% or more; inactive = T/C below 125% in these data.

System: P388 leukemia ip, CD2F1 mice, survival T/C
Experiment: NCI In Vivo Anticancer Drug Screen. Data for tumor model P388 Leukemia (intraperitoneal) in CD2F1 (CDF1) mice
Conditions: endpoint: median survival time, higher = longer survival
Outline: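 Mice carrying the transplanted tumor received test compound or vehicle. Survival was recorded in each group, and the value is the treated-group measurement divided by that of the vehicle-treated control group.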

[1] = dose: 100.0 mg/kg/injection, schedule: Q01DX001 (ip), vehicle: saline with Tween-80
[2] = dose: 200.0 mg/kg/injection, schedule: Q01DX001 (ip), vehicle: saline with Tween-80
[3] = dose: 400.0 mg/kg/injection, schedule: Q01DX001 (ip), vehicle: saline with Tween-80
[4] = dose: 200.0 mg/kg/injection, schedule: Q01DX005 (ip), vehicle: saline with Tween-80
[5] = dose: 50.0 mg/kg/injection, schedule: Q01DX009 (ip), vehicle: Klucel (hydroxypropylcellulose) (HPC)
[6] = dose: 100.0 mg/kg/injection, schedule: Q01DX009 (ip), vehicle: Klucel (hydroxypropylcellulose) (HPC)
[7] = dose: 200.0 mg/kg/injection, schedule: Q01DX009 (ip), vehicle: Klucel (hydroxypropylcellulose) (HPC)
[8] = dose: 60.0 mg/kg/injection, schedule: Q01DX005 (ip), vehicle: saline with Tween-80
[9] = dose: 120.0 mg/kg/injection, schedule: Q01DX005 (ip), vehicle: saline with Tween-80
[10] = dose: 240.0 mg/kg/injection, schedule: Q01DX005 (ip), vehicle: saline with Tween-80
[11] = dose: 50.0 mg/kg/injection, schedule: Q01DX009 (ip), vehicle: saline with Tween-80
[12] = dose: 100.0 mg/kg/injection, schedule: Q01DX009 (ip), vehicle: saline with Tween-80
[13] = dose: 200.0 mg/kg/injection, schedule: Q01DX009 (ip), vehicle: saline with Tween-80
[14] = dose: 50.0 mg/kg/injection, schedule: Q01DX005 (ip), vehicle: saline with Tween-80
[15] = dose: 100.0 mg/kg/injection, schedule: Q01DX005 (ip), vehicle: saline with Tween-80
[16] = dose: 25.0 mg/kg/injection, schedule: Q01DX009 (ip), vehicle: saline with Tween-80

Measured: T/C

Cc1cc(Cl)ccc1NC(=O)/C(Cl)=C1/Sc2ccccc2NC1=O
inactive: [1] 105 % of control | [2] 97 % of control | [3] 97 % of control

CC(C)=CCc1c(O)ccc(C(=O)[C@H]2C(c3ccc(O)cc3O)CC(C)=C[C@@H]2c2c(O)cc(O)c3c(=O)c(CC=C(C)C)c(-c4ccc(O)cc4O)oc23)c1O (some centres undefined)
inactive: dose: 7.5 mg/kg/injection, schedule: Q01DX005 (ip), vehicle: Klucel (hydroxypropylcellulose) (HPC) 92 % of control | dose: 15.0 mg/kg/injection, schedule: Q01DX005 (ip), vehicle: Klucel (hydroxypropylcellulose) (HPC) 97 % of control | dose: 30.0 mg/kg/injection, schedule: Q01DX005 (ip), vehicle: Klucel (hydroxypropylcellulose) (HPC) 93 % of control | dose: 60.0 mg/kg/injection, schedule: Q01DX005 (ip), vehicle: Klucel (hydroxypropylcellulose) (HPC) 108 % of control | dose: 120.0 mg/kg/injection, schedule: Q01DX005 (ip), vehicle: Klucel (hydroxypropylcellulose) (HPC) 92 % of control

O=[N+]([O-])c1ccc(-c2csc(=[N+]3CCCCC3)s2)cc1
inactive: dose: 6.25 mg/kg/injection, schedule: Q01DX009 (ip), vehicle: water 106 % of control and 114 % of control | dose: 12.5 mg/kg/injection, schedule: Q01DX009 (ip), vehicle: water 114 % of control

CC1=C(C)C(=O)c2c(c(O)c3ccccc3c2Cl)C1=O
inactive: dose: 0.75 mg/kg/injection, schedule: Q01DX005 (ip), vehicle: saline with Tween-80 96 % of control | dose: 1.5 mg/kg/injection, schedule: Q01DX005 (ip), vehicle: saline with Tween-80 89 % of control | dose: 3.0 mg/kg/injection, schedule: Q01DX005 (ip), vehicle: saline with Tween-80 91 % of control | [4] 93 % of control

COC(=O)c1c(SC)c2sc3ccccc3c2oc1=O
inactive: dose: 6.25 mg/kg/injection, schedule: Q04DX002 (ip), vehicle: saline with Tween-80 100 % of control | dose: 12.5 mg/kg/injection, schedule: Q04DX002 (ip), vehicle: saline with Tween-80 106 % of control | dose: 25.0 mg/kg/injection, schedule: Q04DX002 (ip), vehicle: saline with Tween-80 99 % of control

c1ccc2c3c([nH]c2c1)[C@@H]1CCN2CCC[C@@H]2N1CC3
inactive: dose: 5.75 mg/kg/injection, schedule: Q01DX005 (ip), vehicle: Klucel (hydroxypropylcellulose) (HPC) 101 % of control | dose: 11.5 mg/kg/injection, schedule: Q01DX005 (ip), vehicle: Klucel (hydroxypropylcellulose) (HPC) 100 % of control | dose: 23.0 mg/kg/injection, schedule: Q01DX005 (ip), vehicle: Klucel (hydroxypropylcellulose) (HPC) 95 % of control | dose: 46.0 mg/kg/injection, schedule: Q01DX005 (ip), vehicle: Klucel (hydroxypropylcellulose) (HPC) 93 % of control

C[N+](C)(C)C
inactive: dose: 2.5 mg/kg/injection, schedule: Q01DX009 (ip), vehicle: saline 110 % of control | dose: 5.0 mg/kg/injection, schedule: Q01DX009 (ip), vehicle: saline 100 % of control | dose: 10.0 mg/kg/injection, schedule: Q01DX009 (ip), vehicle: saline 100 % of control

O=C1C=C(O)CN1C(=O)c1ccc(Cl)cc1
inactive: [5] 98 % of control | [6] 107 % of control | [7] 107 % of control

CS(=O)(=O)C(Cl)(Cl)Cl
inactive: [8] 105 % of control | [9] 107 % of control | [10] 112 % of control

Cc1ccc2nc(NC(=S)SSC(=S)Nc3nc4ccc(C)cc4s3)sc2c1
inactive: dose: 6.25 mg/kg/injection, schedule: Q01DX009 (ip), vehicle: Klucel (hydroxypropylcellulose) (HPC) 107 % of control | dose: 12.5 mg/kg/injection, schedule: Q01DX009 (ip), vehicle: Klucel (hydroxypropylcellulose) (HPC) 108 % of control | dose: 25.0 mg/kg/injection, schedule: Q01DX009 (ip), vehicle: Klucel (hydroxypropylcellulose) (HPC) 94 % of control

COc1cc2ccnc(-c3nccc4cc(OC)c(OC)cc34)c2cc1OC
inactive: [1] 97 % of control | [2] 92 % of control | [3] 97 % of control

NNC(=O)c1cccc(C(=O)NN)c1
inactive: [11] 94 % of control | [12] 97 % of control | [13] 92 % of control

C/C(=N\Nc1cc(C)c2cccc(C)c2n1)c1ccccn1
inactive: [14] 105 % of control | [15] 91 % of control | [4] 91 % of control

Cc1ccc2[nH]c(=S)n(-c3ccc(S(=O)(=O)N4CCCCC4)cc3)c(=O)c2c1
inactive: [14] 89 % of control | [15] 91 % of control | [4] 90 % of control

CC(=O)O[C@@H]1C(=O)[C@]2(CO)C(C(OC(=O)c3ccccc3)C3(O)CC(O)C(C)=C1C3(C)C)[C@@]1(OC(C)=O)CO[C@H]1C[C@H]2O (some centres undefined)
inactive: dose: 0.26 mg/kg/injection, schedule: Q01DX009 (ip), vehicle: distilled water + alcohol 108 % of control | dose: 0.53 mg/kg/injection, schedule: Q01DX009 (ip), vehicle: distilled water + alcohol 106 % of control | dose: 1.07 mg/kg/injection, schedule: Q01DX009 (ip), vehicle: distilled water + alcohol 106 % of control | dose: 2.15 mg/kg/injection, schedule: Q01DX009 (ip), vehicle: distilled water + alcohol 105 % of control | dose: 4.3 mg/kg/injection, schedule: Q01DX009 (ip), vehicle: distilled water + alcohol 108 % of control

C=C1C(=O)OC2C1CC(OC(C)=O)/C(C)=C/CCC1(C)OC21 (centres undefined)
inactive: dose: 4.0 mg/kg/injection, schedule: Q01DX009 (ip), vehicle: Klucel (hydroxypropylcellulose) (HPC) 93 % of control | dose: 8.0 mg/kg/injection, schedule: Q01DX009 (ip), vehicle: Klucel (hydroxypropylcellulose) (HPC) 97 % of control | dose: 16.0 mg/kg/injection, schedule: Q01DX009 (ip), vehicle: Klucel (hydroxypropylcellulose) (HPC) 96 % of control | dose: 32.0 mg/kg/injection, schedule: Q01DX009 (ip), vehicle: Klucel (hydroxypropylcellulose) (HPC) 93 % of control

CC(=O)N(C)c1ccc(Nc2ccc(Nc3ccc(N(C)C(C)=O)cc3)c3c2C(=O)c2ccccc2C3=O)cc1
inactive: [14] 100 % of control | [15] 100 % of control | [4] 99 % of control

S=C1SCN(Cc2ccco2)CN1Cc1ccco1
inactive: [11] 94 % of control | [12] 94 % of control

Nc1nc(N)nc(N2CCCC2)n1
inactive: [16] 101 % of control | [11] 97 % of control | [12] 92 % of control

O=C(/C=C(/SS/C(=C/C(=O)c1ccccc1)c1ccccc1)c1ccccc1)c1ccccc1
inactive: [5] 98 % of control | [6] 98 % of control | [7] 91 % of control

Cc1onc(-c2c(Cl)cccc2Cl)c1C(=O)Oc1ccc(-c2ccc(OC(=O)c3c(-c4c(Cl)cccc4Cl)noc3C)cc2)cc1
inactive: [8] 108 % of control | [9] 102 % of control | [10] 89 % of control

Cn1cc(Cc2c[nH]c3ccccc3c2=O)c2ccccc21
inactive: [8] 107 % of control | [9] 99 % of control | [10] 97 % of control

COc1ccc(/C=C(/C#N)c2ccc(Cl)cc2)cc1
inactive: [16] 92 % of control | [11] 92 % of control | [12] 95 % of control | [13] 93 % of control

C#CC(CC)(CC)N1CC(OC(=O)NCC=C)C1
inactive: [5] 100 % of control | [6] 97 % of control | [7] 95 % of control

CCOC(=O)[C@H]1CC[C@@H](C(=O)OCC)N1Sc1ccc([N+](=O)[O-])cc1[N+](=O)[O-]
inactive: [14] 102 % of control | [15] 102 % of control | [4] 102 % of control
